# Measurements published in the supplement of paper PMC12463676, “Small-molecule dissolution of stress granules by redox modulation benefits ALS models” (Nature Chemical Biology, 2025).
# Compound: NC(=O)CCCCC1CCSS1 [lipoamide]
# Assay: thermal stability z-score vs DMSO; higher = more thermally stabilized by treatment
# Conditions: HeLa; lipoamide concentration 100 µM; arsenate co-treatment: none
# Description: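 Cellular thermal proteome profiling in HeLa cells. Cells were treated with 100 µM lipoamide for 1 h, with or without 1 mM arsenate for a further 1 h, then heated to ten temperatures (37-66.3 °C), and soluble protein was quantified by TMT mass spectrometry relative to 0.1% DMSO controls. The thermal stability score (sum of log2 fold changes minus the abundance score) was transformed to a z-score; mean of n = 3 experiments.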
# 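Also: each temperature applied for 3 min, abundance score taken as mean log2 fold change at the two lowest temperatures, z-score obtained by mean subtraction and division by SD.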
# Chain of UniProt O75907 (O75907 whole entry): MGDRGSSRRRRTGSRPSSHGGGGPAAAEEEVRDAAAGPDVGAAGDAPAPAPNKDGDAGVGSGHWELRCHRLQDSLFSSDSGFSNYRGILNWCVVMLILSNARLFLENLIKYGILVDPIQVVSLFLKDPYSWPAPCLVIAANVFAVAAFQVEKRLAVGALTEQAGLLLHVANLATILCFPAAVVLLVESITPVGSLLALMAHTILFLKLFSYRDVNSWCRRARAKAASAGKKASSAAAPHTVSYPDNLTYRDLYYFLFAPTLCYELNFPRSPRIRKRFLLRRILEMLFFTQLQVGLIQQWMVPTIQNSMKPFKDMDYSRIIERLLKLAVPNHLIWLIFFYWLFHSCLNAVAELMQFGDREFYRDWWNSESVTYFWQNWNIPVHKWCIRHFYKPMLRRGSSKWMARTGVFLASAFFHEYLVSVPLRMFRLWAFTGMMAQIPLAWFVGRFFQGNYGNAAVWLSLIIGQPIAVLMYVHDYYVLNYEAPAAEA
# Chain of UniProt Q8NBI6 (Q8NBI6 whole entry): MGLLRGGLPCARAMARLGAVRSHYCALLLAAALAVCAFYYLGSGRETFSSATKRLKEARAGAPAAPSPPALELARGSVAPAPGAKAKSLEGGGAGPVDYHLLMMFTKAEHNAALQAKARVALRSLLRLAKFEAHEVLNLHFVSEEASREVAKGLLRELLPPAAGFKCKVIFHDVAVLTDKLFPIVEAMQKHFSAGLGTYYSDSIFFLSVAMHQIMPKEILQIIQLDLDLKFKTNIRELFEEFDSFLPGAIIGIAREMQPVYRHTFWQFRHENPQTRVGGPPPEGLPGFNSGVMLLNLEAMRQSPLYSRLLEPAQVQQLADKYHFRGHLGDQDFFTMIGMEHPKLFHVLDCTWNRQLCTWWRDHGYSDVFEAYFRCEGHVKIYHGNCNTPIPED
# Chain of UniProt Q9H3Q1 (Q9H3Q1 whole entry): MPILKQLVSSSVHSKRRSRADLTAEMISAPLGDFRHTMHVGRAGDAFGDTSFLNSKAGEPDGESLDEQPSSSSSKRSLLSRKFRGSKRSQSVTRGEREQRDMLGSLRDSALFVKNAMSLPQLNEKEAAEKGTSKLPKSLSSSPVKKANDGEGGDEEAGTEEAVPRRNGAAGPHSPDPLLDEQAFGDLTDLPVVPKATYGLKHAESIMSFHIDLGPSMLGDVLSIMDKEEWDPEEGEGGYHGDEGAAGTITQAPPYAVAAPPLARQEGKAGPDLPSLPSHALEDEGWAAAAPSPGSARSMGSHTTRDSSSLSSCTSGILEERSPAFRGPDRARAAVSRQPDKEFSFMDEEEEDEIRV
# Chain of UniProt O95239 (O95239 whole entry): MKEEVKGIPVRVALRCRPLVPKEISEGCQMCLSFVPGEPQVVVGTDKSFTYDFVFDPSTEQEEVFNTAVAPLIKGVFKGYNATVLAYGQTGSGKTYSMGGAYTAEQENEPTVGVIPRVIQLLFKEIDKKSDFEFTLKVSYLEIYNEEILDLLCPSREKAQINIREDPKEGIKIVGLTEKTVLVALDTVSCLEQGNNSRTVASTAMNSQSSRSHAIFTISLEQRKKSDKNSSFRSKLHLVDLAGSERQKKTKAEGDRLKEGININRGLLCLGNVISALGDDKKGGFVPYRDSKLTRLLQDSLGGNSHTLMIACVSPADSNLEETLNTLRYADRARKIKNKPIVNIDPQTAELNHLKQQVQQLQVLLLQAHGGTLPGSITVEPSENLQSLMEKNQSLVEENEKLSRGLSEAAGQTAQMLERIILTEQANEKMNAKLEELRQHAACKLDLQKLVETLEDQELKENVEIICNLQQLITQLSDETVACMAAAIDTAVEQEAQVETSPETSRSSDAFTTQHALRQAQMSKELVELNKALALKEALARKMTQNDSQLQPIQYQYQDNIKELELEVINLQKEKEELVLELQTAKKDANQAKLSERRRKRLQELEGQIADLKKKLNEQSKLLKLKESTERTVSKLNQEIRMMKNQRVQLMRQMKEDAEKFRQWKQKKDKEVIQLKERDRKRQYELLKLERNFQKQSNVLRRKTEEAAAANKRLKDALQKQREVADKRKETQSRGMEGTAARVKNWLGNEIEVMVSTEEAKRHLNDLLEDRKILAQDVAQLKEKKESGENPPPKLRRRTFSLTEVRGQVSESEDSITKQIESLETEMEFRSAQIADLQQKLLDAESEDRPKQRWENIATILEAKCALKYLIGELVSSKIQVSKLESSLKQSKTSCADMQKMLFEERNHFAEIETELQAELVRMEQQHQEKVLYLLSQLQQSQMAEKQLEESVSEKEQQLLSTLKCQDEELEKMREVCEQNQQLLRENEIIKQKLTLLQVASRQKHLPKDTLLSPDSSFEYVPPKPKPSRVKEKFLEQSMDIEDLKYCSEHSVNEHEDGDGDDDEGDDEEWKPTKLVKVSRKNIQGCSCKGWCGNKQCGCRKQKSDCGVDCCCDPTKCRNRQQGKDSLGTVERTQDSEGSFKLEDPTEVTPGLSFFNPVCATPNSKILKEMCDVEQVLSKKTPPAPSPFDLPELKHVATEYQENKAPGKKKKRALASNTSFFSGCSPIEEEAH
# Chain of UniProt Q96SN8 (Q96SN8 whole entry): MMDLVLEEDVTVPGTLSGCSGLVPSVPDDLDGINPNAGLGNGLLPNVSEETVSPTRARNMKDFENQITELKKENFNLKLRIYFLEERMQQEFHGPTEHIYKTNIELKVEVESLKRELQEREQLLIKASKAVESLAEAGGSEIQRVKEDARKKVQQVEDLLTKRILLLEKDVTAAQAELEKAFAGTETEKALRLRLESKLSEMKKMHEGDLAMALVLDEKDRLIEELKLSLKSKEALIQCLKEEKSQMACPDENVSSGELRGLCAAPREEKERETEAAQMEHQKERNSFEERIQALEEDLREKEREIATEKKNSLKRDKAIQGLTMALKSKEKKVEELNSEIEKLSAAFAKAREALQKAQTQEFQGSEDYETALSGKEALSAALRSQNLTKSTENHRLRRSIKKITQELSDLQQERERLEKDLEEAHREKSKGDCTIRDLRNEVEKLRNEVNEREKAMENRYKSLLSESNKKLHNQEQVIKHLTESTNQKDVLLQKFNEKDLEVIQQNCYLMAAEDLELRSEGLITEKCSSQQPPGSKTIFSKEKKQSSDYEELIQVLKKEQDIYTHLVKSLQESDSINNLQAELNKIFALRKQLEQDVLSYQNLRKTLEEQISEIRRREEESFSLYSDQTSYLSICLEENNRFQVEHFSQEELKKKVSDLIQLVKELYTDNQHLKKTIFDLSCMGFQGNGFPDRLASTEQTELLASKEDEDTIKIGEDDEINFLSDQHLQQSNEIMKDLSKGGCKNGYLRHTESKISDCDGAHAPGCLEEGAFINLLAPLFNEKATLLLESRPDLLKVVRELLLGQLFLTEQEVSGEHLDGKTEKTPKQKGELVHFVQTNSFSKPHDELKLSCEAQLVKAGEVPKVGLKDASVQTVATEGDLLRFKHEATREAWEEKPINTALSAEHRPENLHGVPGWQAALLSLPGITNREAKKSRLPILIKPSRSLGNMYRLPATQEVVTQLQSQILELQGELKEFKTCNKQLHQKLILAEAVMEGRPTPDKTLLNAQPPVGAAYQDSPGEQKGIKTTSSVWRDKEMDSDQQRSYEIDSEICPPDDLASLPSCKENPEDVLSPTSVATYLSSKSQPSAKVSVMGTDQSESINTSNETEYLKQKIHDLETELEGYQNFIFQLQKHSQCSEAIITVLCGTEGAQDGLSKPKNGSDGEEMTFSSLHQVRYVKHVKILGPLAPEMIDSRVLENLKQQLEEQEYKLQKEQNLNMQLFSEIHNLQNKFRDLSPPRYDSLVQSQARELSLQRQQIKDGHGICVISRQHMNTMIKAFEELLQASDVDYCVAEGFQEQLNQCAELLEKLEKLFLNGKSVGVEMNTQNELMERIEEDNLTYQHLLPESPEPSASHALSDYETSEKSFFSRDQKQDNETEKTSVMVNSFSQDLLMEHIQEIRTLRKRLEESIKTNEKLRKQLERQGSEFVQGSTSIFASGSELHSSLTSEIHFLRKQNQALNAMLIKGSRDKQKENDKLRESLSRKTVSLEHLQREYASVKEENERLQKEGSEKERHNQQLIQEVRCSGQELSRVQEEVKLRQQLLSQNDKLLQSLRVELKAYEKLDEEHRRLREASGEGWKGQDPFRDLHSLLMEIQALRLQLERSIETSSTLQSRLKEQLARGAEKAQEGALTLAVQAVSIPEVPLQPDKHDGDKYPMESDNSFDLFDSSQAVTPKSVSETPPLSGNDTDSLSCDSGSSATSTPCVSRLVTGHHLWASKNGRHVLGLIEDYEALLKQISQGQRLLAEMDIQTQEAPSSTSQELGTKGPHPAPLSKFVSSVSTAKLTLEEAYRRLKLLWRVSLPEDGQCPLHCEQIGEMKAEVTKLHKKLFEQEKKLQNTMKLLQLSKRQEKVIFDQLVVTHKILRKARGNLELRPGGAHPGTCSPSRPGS
# Chain of UniProt P60660 (P60660 whole entry): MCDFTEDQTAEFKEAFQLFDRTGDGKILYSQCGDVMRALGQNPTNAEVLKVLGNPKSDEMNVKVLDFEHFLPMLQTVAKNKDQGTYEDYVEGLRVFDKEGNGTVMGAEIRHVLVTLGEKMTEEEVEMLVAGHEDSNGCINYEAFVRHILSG
# Chain of UniProt Q9UGV2 (Q9UGV2 whole entry): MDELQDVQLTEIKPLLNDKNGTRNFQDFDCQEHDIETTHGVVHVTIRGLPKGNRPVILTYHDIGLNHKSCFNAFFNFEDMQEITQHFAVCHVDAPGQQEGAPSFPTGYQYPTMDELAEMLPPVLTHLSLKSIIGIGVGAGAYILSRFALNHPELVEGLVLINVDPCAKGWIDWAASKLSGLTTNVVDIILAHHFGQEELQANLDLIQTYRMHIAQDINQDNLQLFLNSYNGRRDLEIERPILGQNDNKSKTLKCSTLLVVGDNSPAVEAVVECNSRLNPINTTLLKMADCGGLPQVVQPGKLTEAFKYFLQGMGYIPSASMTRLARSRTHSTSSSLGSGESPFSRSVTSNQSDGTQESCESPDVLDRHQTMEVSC
# Chain of UniProt O43676 (O43676 whole entry): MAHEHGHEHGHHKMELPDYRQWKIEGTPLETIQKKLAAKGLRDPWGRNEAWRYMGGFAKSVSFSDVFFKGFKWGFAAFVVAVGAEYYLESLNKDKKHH
row,Target,thermal stability z-score
1,KIF4A (UniProt O95239),0.023
2,TFB1M (UniProt Q8WVM0),0.233
3,XXYLT1 (UniProt Q8NBI6),-2.13
4,FUK (UniProt Q8N0W3),0.461
5,CDK5RAP2 (UniProt Q96SN8),-0.131
6,MGLL (UniProt Q99685),0.117
7,AGO2 (UniProt Q9UKV8),0.402
8,FKBP5 (UniProt Q13451),-0.429
9,CIRBP (UniProt Q14011),-0.192
10,RNF34 (UniProt Q969K3),0.0211
11,PHF5A (UniProt Q7RTV0),0.339
12,EIF3H (UniProt O15372),-0.608
13,RSU1 (UniProt Q15404),-0.369
14,WASL (UniProt O00401),0.327
15,PIKFYVE (UniProt Q9Y2I7),-0.0522
16,NUP93 (UniProt Q8N1F7),-0.482
17,NTMT1 (UniProt Q9BV86),-0.204
18,STMN1 (UniProt P16949),1.18
19,SRRM2 (UniProt Q9UQ35),1.42
20,IBTK (UniProt Q9P2D0),-0.319
21,NDRG3 (UniProt Q9UGV2),-0.269
22,WDR43 (UniProt Q15061),-1.02
23,USMG5 (UniProt Q96IX5),0.486
24,MYL6 (UniProt P60660),0.451
25,NDUFB3 (UniProt O43676),-0.236
26,RASSF1 (UniProt Q9NS23),0.04
27,DGAT1 (UniProt O75907),-0.27
28,CDC42EP4 (UniProt Q9H3Q1),-0.652

# Compound: O=[As]([O-])(O)O.[K+] [potassium arsenate]
# Assay: as above
# Conditions: HeLa; arsenate concentration 1 mM
# Description: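 Cellular thermal proteome profiling in HeLa cells treated with 1 mM arsenate for 1 h (DMSO pretreatment), heated to ten temperatures (37-66.3 °C). Soluble protein was quantified by TMT mass spectrometry relative to DMSO controls; the thermal stability score was transformed to a z-score; mean of n = 3 experiments.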
row,Target,thermal stability z-score
1,SMARCAD1 (UniProt Q9H4L7),-0.159
2,MBD2 (UniProt Q9UBB5),-0.294
3,MAP4K3 (UniProt Q8IVH8),0.139
4,SUN2 (UniProt Q9UH99),-0.0506
5,MTMR14 (UniProt Q8NCE2),-0.829
6,VPS72 (UniProt Q15906),-2.49
7,GOLIM4 (UniProt O00461),0.283
8,NCOA4 (UniProt Q13772),-0.116
9,SMARCA2 (UniProt P51531),-0.174
10,HSP90AB1 (UniProt P08238),0.108
11,MAEA (UniProt Q7L5Y9),-0.343
12,DYNC2LI1 (UniProt Q8TCX1),0.202
13,CREBBP (UniProt Q92793),-0.693
14,AP2A1 (UniProt O95782),1.19
15,MPP5 (UniProt Q8N3R9),-0.004
16,DHX29 (UniProt Q7Z478),0.267
17,MAPK3 (UniProt P27361),-0.214
18,PSIP1 (UniProt O75475),-0.306
19,ARL8A (UniProt Q96BM9),0.218
20,SLC30A5 (UniProt Q8TAD4),-0.849
21,ICT1 (UniProt Q14197),-0.225
22,SGPP1 (UniProt Q9BX95),-0.0282
23,COG7 (UniProt P83436),0.224
24,YARS (UniProt P54577),2.64
25,SEMA3C (UniProt Q99985),-0.147
26,NAT6 (UniProt Q93015),-0.338
27,ALDH7A1 (UniProt P49419),0.994
28,KIF4A (UniProt O95239),-0.219

row,Target,thermal stability z-score
1,TFB1M (UniProt Q8WVM0),0.0871
2,XXYLT1 (UniProt Q8NBI6),0.948
3,FUK (UniProt Q8N0W3),0.0734
4,CDK5RAP2 (UniProt Q96SN8),-0.112
5,MGLL (UniProt Q99685),-0.132
6,AGO2 (UniProt Q9UKV8),-0.204
7,FKBP5 (UniProt Q13451),-0.667
8,CIRBP (UniProt Q14011),-0.194
9,RNF34 (UniProt Q969K3),-0.392
10,PHF5A (UniProt Q7RTV0),-5.28
11,EIF3H (UniProt O15372),0.162
12,RSU1 (UniProt Q15404),-1.38
13,WASL (UniProt O00401),-1.26
14,PIKFYVE (UniProt Q9Y2I7),-0.189
15,NUP93 (UniProt Q8N1F7),0.232
16,NTMT1 (UniProt Q9BV86),-0.137
17,STMN1 (UniProt P16949),0.78
18,SRRM2 (UniProt Q9UQ35),-0.494
19,IBTK (UniProt Q9P2D0),-0.576
20,NDRG3 (UniProt Q9UGV2),-1.65
21,WDR43 (UniProt Q15061),-0.817
22,USMG5 (UniProt Q96IX5),0.215
23,MYL6 (UniProt P60660),-0.312
24,NDUFB3 (UniProt O43676),0.36
25,RASSF1 (UniProt Q9NS23),-0.089
26,DGAT1 (UniProt O75907),-0.264
27,CDC42EP4 (UniProt Q9H3Q1),0.499
